Tested on: de novo fatty acid synthesis
Assay: Lipid metabolite profile of plasma, heart, liver and inguinal adipose of CL316,243-treated mice (trial 2; Tables 7 and 8)
Format: in vivo
Settings: Liver, mean
Description: It is understood that the described methods can be used to analyze lipid metabolites from other subjects, including particularly animals other than mice.
Mouse tissue and plasma samples were a generous donation to Lipomics Technologies, Inc., from Dr. Edward Leiter of the Jackson Laboratory (Bar Harbor, Me.). Samples included the plasma, heart, liver and inguinal adipose of mice treated with pharmaceuticals or their corresponding controls.
In trial 2, male, inbred NON mice were fed a control with or without the presence of the β-3 adrenergic agonist CL316,243 for four weeks (at 0.001% CL316,243 by weight in the dietary chow).
In both studies, five treated and five control mice were used. Following the treatments and the killing of the mice, tissues and plasma were taken, chilled to −80 ° C. and shipped to the analysis laboratory at Lipomics Technologies in a frozen state.
Tissue processing and lipid extraction, including provision of internal standards, was carried out essentially as described in Watkins et al. (J. Lipid Res. Papers in Press, 10.1184/jlf.M200169-JLF200, published August 16, 2002), and in co-owned international application PCT/US02/21426, entitled “GENERATING, VIEWING, INTERPRETING, AND UTILIZING A QUANTITATIVE DATABASE OF METABOLITES,” both of which are incorporated in their entirety herein by reference.
The separation of lipid classes was performed in some instance by preparative thin-layer chromatography (TLC). To remove any residual metal or other damaging contaminants on the TLC plates, each plate was washed prior to use. Washing the plates is a three-step process that involves impregnating each plate with ethylenediamine tetraacetic acid (EDTA) and rinsing the plates once with methanol and once with chloroform. Each plate is first impregnated with 1 mM EDTA, pH 5.5, by ascending development using the method of Ruiz (J. Lipid Res. 38, 1482-1489, 1997). After each plate was completely developed, it was dried in air overnight. Once dry, each plate was developed in methanol, dried, and developed in chloroform in the same direction as the development with EDTA. The washed plates were then dried in air. Just prior to use, each plate was activated by heating to 110° C. for 10 minutes.
To prepare the TLC chamber for chromatography, Whatman (Clifton, N.J.) filter paper was cut into 20×80-cm strips and wrapped around the inside wall of a 30×60×10-cm glass development chamber. One hundred milliliters of the appropriate mobile phase was added to the chamber, and the chambers were sealed and allowed to equilibrate. Chambers were considered equilibrated when the solvent front had completely ascended the filter paper. The mobile phase employed for the separation of phospholipid classes (lyso-phospholipids, sphingomyelin, phosphatidylcholine, phosphatidylserine, phosphatidylethanolamine and cardiolipin) was a modification of the solvent system described by Holub and Skeaf (“Nutritional regulation of cellular phosphatidylinositol,” in Methods in Enzymology, ed. Conn, P. M. (Academic Press, Inc., Orlando), pp. 234-243, 1987) consisting of chloroform/methanol/acetic acid/water (100:67:7:4, by volume).
For the separation of neutral lipid classes (free fatty acids, free sterols, triacylglycerides and cholesterol esters), a solvent system consisting of petroleum ether/diethyl ether/acetic acid (80:20:1, by volume) was used (Mangold, Thin Layer Chromatography—A Laboratory Handbook (Springer-Verlag, New York), 1969).
After the TLC plate was activated, the sample extracts were spotted onto the activated plate. As a general rule, samples were spotted at an estimated concentration such that no single lipid class was present at more than 25 jig per centimeter of plate width following chromatography. This ensured that the plate was not overloaded and minimized the risk of cross-contamination between lipid classes (cross-contamination is readily identified during sample analysis as each lipid class contains unique internal standards). […]

C[C@H](Cc1ccc2c(c1)OC(C(=O)[O-])(C(=O)[O-])O2)NC[C@H](O)c1cccc(Cl)c1.[Na+].[Na+] [CL316,243]
Total nMole of FA (FFA): 9555.8 nanomoles per gram
14:0 (PC): 69.0 nanomoles per gram
16:0 (PC): 11221.7 nanomoles per gram
16:1n7 (PC): 358.8 nanomoles per gram
18:0 (PC): 5889.5 nanomoles per gram
18:1n7 (PC): 741.3 nanomoles per gram
18:1n9 (PC): 3855.0 nanomoles per gram
Saturates (PC): 17292.7 nanomoles per gram
Total n7 (PC): 1100.1 nanomoles per gram
Total n9 (PC): 3964.0 nanomoles per gram
Total nMole of FA (PC): 19052.2 nanomoles per gram
14:0 (PE): 13.1 nanomoles per gram
16:0 (PE): 4406.0 nanomoles per gram
16:1n7 (PE): 117.9 nanomoles per gram
18:0 (PE): 3777.4 nanomoles per gram
18:1n7 (PE): 247.4 nanomoles per gram
18:1n9 (PE): 1320.6 nanomoles per gram
Saturates (PE): 8245.4 nanomoles per gram
Total n7 (PE): 365.3 nanomoles per gram
Total n9 (PE): 1376.1 nanomoles per gram
Total nMole of FA (PE): 9924.9 nanomoles per gram
14:0 (PL): 91.0 nanomoles per gram
16:0 (PL): 16120.7 nanomoles per gram
16:1n7 (PL): 586.5 nanomoles per gram
18:0 (PL): 12438.5 nanomoles per gram
18:1n7 (PL): 1242.7 nanomoles per gram
18:1n9 (PL): 5839.1 nanomoles per gram
Saturates (PL): 29247.6 nanomoles per gram
Total n7 (PL): 1829.2 nanomoles per gram
Total n9 (PL): 6261.0 nanomoles per gram
Total nMole of FA (PL): 34731.4 nanomoles per gram
14:0 (PS/I): 19.9 nanomoles per gram
16:0 (PS/I): 898.1 nanomoles per gram
16:1n7 (PS/I): 37.8 nanomoles per gram
18:0 (PS/I): 4313.9 nanomoles per gram
18:1n7 (PS/I): 100.2 nanomoles per gram
18:1n9 (PS/I): 486.8 nanomoles per gram
Saturates (PS/I): 5283.6 nanomoles per gram
Total n7 (PS/I): 138.0 nanomoles per gram
Total n9 (PS/I): 607.6 nanomoles per gram
Total nMole of FA (PS/I): 5625.0 nanomoles per gram
14:0 (TAG): 207.9 nanomoles per gram
16:0 (TAG): 6580.5 nanomoles per gram
16:1n7 (TAG): 675.6 nanomoles per gram
18:0 (TAG): 668.7 nanomoles per gram
18:1n7 (TAG): 619.4 nanomoles per gram
18:1n9 (TAG): 7123.9 nanomoles per gram
Saturates (TAG): 7585.2 nanomoles per gram
Total n7 (TAG): 1295.0 nanomoles per gram
Total n9 (TAG): 7280.9 nanomoles per gram
Total nMole of FA (TAG): 6910.6 nanomoles per gram
14:0 (lipid class CE): 2.5 percentage of total fatty acids
16:0 (lipid class CE): 27.3 percentage of total fatty acids
16:1n7 (lipid class CE): 4.9 percentage of total fatty acids
18:0 (lipid class CE): 7.1 percentage of total fatty acids
18:1n7 (lipid class CE): 1.8 percentage of total fatty acids
18:1n9 (lipid class CE): 25.4 percentage of total fatty acids
Saturates (lipid class CE): 39.0 percentage of total fatty acids
Total (lipid class CE): 100.0 percentage of total fatty acids
Total n7 (lipid class CE): 6.7 percentage of total fatty acids
Total n9 (lipid class CE): 26.9 percentage of total fatty acids
14:0 (lipid class CL): 0.4 percentage of total fatty acids
16:0 (lipid class CL): 4.9 percentage of total fatty acids
16:1n7 (lipid class CL): 1.5 percentage of total fatty acids
18:0 (lipid class CL): 4.7 percentage of total fatty acids
18:1n7 (lipid class CL): 4.4 percentage of total fatty acids
18:1n9 (lipid class CL): 8.7 percentage of total fatty acids
Saturates (lipid class CL): 10.4 percentage of total fatty acids
Total (lipid class CL): 25.0 percentage of total fatty acids
Total n7 (lipid class CL): 5.9 percentage of total fatty acids
Total n9 (lipid class CL): 9.4 percentage of total fatty acids
14:0 (lipid class FFA): 1.6 percentage of total fatty acids
16:0 (lipid class FFA): 24.0 percentage of total fatty acids
16:1n7 (lipid class FFA): 3.9 percentage of total fatty acids
18:0 (lipid class FFA): 4.9 percentage of total fatty acids
18:1n7 (lipid class FFA): 2.8 percentage of total fatty acids
18:1n9 (lipid class FFA): 23.7 percentage of total fatty acids
Saturates (lipid class FFA): 31.2 percentage of total fatty acids
Total (lipid class FFA): 100.0 percentage of total fatty acids
Total n7 (lipid class FFA): 6.7 percentage of total fatty acids
Total n9 (lipid class FFA): 24.2 percentage of total fatty acids
14:0 (lipid class PC): 0.2 percentage of total fatty acids
16:0 (lipid class PC): 29.4 percentage of total fatty acids
16:1n7 (lipid class PC): 0.9 percentage of total fatty acids
18:0 (lipid class PC): 15.5 percentage of total fatty acids
18:1n7 (lipid class PC): 1.9 percentage of total fatty acids
18:1n9 (lipid class PC): 10.1 percentage of total fatty acids
Saturates (lipid class PC): 45.4 percentage of total fatty acids
Total (lipid class PC): 50.0 percentage of total fatty acids
Total n7 (lipid class PC): 2.9 percentage of total fatty acids
Total n9 (lipid class PC): 10.4 percentage of total fatty acids
14:0 (lipid class PE): 0.1 percentage of total fatty acids
16:0 (lipid class PE): 22.2 percentage of total fatty acids
16:1n7 (lipid class PE): 0.6 percentage of total fatty acids
18:0 (lipid class PE): 19.1 percentage of total fatty acids
18:1n7 (lipid class PE): 1.2 percentage of total fatty acids
18:1n9 (lipid class PE): 6.6 percentage of total fatty acids
Saturates (lipid class PE): 41.5 percentage of total fatty acids
Total (lipid class PE): 50.0 percentage of total fatty acids
Total n7 (lipid class PE): 1.8 percentage of total fatty acids
Total n9 (lipid class PE): 6.9 percentage of total fatty acids
14:0 (lipid class PL): 0.1 percentage of total fatty acids
16:0 (lipid class PL): 23.2 percentage of total fatty acids
16:1n7 (lipid class PL): 0.8 percentage of total fatty acids
18:0 (lipid class PL): 17.9 percentage of total fatty acids
18:1n7 (lipid class PL): 1.8 percentage of total fatty acids
18:1n9 (lipid class PL): 8.4 percentage of total fatty acids
Saturates (lipid class PL): 42.1 percentage of total fatty acids
Total (lipid class PL): 50.0 percentage of total fatty acids
Total n7 (lipid class PL): 2.6 percentage of total fatty acids
Total n9 (lipid class PL): 9.0 percentage of total fatty acids
14:0 (lipid class PS/I): 0.2 percentage of total fatty acids
16:0 (lipid class PS/I): 8.0 percentage of total fatty acids
16:1n7 (lipid class PS/I): 0.3 percentage of total fatty acids
18:0 (lipid class PS/I): 38.4 percentage of total fatty acids
18:1n7 (lipid class PS/I): 0.9 percentage of total fatty acids
18:1n9 (lipid class PS/I): 4.3 percentage of total fatty acids
Saturates (lipid class PS/I): 47.0 percentage of total fatty acids
Total (lipid class PS/I): 50.0 percentage of total fatty acids
Total n7 (lipid class PS/I): 1.2 percentage of total fatty acids

— patent publication US20050009005A1, “Methods of using quantitative lipid metabolome data” (Lipomics Technologies, Inc., priority 2001, published 2005)
